In the CheMixHub viscosity set:

Assay: xn = mol fraction of the nth substance listed

CC(C)C#N + Clc1ccccc1
viscosity [mPa·s], 101 kPa
Details	x2 = 0.1028	x2 = 0.2026	x2 = 0.3007	x2 = 0.4004	x2 = 0.5004	x2 = 0.6004	x2 = 0.6996	x2 = 0.7998	x2 = 0.8999
303.15 K	0.487	0.513	0.537	0.562	0.585	0.61	0.636	0.663	0.689
308.15 K	0.456	0.48	0.503	0.525	0.545	0.569	0.592	0.616	0.643

CC(C)C#N + Clc1ccccc1Cl
viscosity [mPa·s], 101 kPa
Details	x2 = 0.1007	x2 = 0.2025	x2 = 0.2999	x2 = 0.4004	x2 = 0.4997	x2 = 0.599	x2 = 0.6994	x2 = 0.7997	x2 = 0.8989
303.15 K	0.526	0.594	0.659	0.73	0.793	0.874	0.947	1.03	1.118
308.15 K	0.489	0.551	0.608	0.667	0.732	0.798	0.87	0.945	1.02

OCCCl + Nc1cccc(Cl)c1
100 kPa
Details	viscosity [mPa·s]
303.15 K, x2 = 0.7938	3.925
308.15 K, x2 = 0.3622	2.855
313.15 K, x2 = 0.0844	1.995
313.15 K, x2 = 0.5814	2.795

CC(=O)[O-].[Na+] + O
viscosity [mPa·s], 101.33 kPa
Details	293.15 K	298.15 K	303.15 K
x1 = 0.0046	1.082	0.965	0.863
x1 = 0.0112	1.217	1.083	0.968
x1 = 0.0172	1.355	1.205	1.075
x1 = 0.0215	1.466	1.302	1.16
x1 = 0.0287	1.673	1.484	1.32
x1 = 0.0343	1.857	1.645	1.462
x1 = 0.0402	2.076	1.836	1.629
x1 = 0.0467	2.35	2.076	1.839
x1 = 0.0505	2.529	2.232	1.975
x1 = 0.0572	2.883	2.54	2.244
x1 = 0.0652	3.379	2.97	2.619

O=c1cc[nH]c(=O)[nH]1 + O
viscosity [mPa·s]
Details	293.15 K	298.15 K	303.15 K	308.15 K	318.15 K
101 kPa, x1 = 9e-05	–	0.879	–	0.7172	0.5784
101 kPa, x1 = 0.00018	–	0.9132	–	0.7313	0.5871
101 kPa, x1 = 0.00027	–	0.9292	–	0.7541	0.6092
101 kPa, x1 = 0.00036	–	0.941	–	0.7821	0.6272
101.3 kPa, x1 = 0.000113	1.004	–	0.801	–	–
101.3 kPa, x1 = 0.000164	–	0.892	–	0.721	–
101.3 kPa, x1 = 0.000177	1.005	0.894	0.802	–	–
101.3 kPa, x1 = 0.0002602	–	0.894	–	–	0.599
101.3 kPa, x1 = 0.0002747	1.006	–	0.803	–	–
101.3 kPa, x1 = 0.0003447	1.007	0.896	0.804	–	–
101.3 kPa, x1 = 0.0004315	–	0.896	–	–	0.601
101.3 kPa, x1 = 0.0004415	–	0.896	–	0.725	0.601
101.3 kPa, x1 = 0.0004586	1.008	0.897	0.805	–	–
101.3 kPa, x1 = 0.0004739	–	0.897	–	0.725	0.601
101.3 kPa, x1 = 0.0005438	1.009	–	0.806	–	–
